In patent publication US10889611B2, “Sialyltransferase inhibitors and uses thereof” (Academia Sinica, priority 2015, dated 2021):

Assays:
[1] = biological target: T1, α2,6(N)-sialyltransferases ST6GALI (Homo sapiens, UniProt P15907); test: Sialyltransferase inhibition assay, ST6GALI (reverse-phase HPLC); format: biochemical
T1 construct: purchased RnDSystems.com (R&D Systems)
T1 sequence (P15907 1-406): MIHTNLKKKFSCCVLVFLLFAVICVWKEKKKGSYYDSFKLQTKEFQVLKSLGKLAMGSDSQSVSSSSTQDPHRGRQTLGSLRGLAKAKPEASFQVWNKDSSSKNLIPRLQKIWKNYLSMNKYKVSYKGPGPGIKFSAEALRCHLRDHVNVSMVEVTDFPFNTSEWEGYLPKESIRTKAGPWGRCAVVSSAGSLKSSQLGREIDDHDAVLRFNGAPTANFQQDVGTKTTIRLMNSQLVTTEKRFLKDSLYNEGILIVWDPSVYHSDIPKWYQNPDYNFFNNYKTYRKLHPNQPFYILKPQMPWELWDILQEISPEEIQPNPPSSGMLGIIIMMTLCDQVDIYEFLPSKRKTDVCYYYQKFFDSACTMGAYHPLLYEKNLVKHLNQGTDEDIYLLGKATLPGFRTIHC
Procedure, shortened: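 Human ST6GalI (1.4 mU) incubated 15 min at 37° C with 25 μM Galβ1-4GlcNAc, 1 mM CMP-Neu5Ac and inhibitor in 200 mM MES, 100 mM NaCl, 0.5 mM EDTA, 0.01% Triton X-100. Sialylated product quantified by reverse-phase HPLC; kinetics from nonlinear fitting of initial rates.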

MDA-MB-231 cells = test: Transwell migration assay, breast cancer cells; format: cell-based, human
Source text: Migration assays were done using a transwell, in which a polycarbonate filter pre-coated with Matrigel (8-μm pores, Millicell; Millipore, Billerica, Mass.) was inserted therein. […] Cells that had migrated to the underside of the inserted filter were stained with hematoxylin solution. The cells in the upper side of the inserted membrane were rubbed with a cotton swab. The migrated cells on the underside were pictured in a 200× magnification field and quantified.

PANC-1 pancreatic tumor = test: Inhibition of pancreatic tumor growth in SCID mice; format: in vivo
Procedure: SCID mice (6 weeks old) were orthotopically injected with 1×10^5 human pancreatic cells PANC-1 grown in glucose-containing or fructose-containing medium with or without the presence of the present compound (e.g., FCW34, 5 μM) on day 0. The progression of the tumor was followed by bioluminescence IVIS image analysis, and the test animals were then sacrificed by cervical dislocation after 14 weeks, and respective tumors and the liver sections were collected, and analyzed by histochemical staining with SNA lectin to measure 2,6-sialylation levels utilizing FACS analysis.

PANC-1 cells = test: SNA lectin staining of 2,6-sialylation by FACS in PANC-1 cells; format: cell-based, human; details: PANC-1 cells grown in fructose-containing medium, FIG. 3
Source text: PANC-1 cells were first grown in glucose-containing or fructose-containing medium treated with or without the presence of the test compound (i.e., FCW34 or AL10, which was used as a positive control), then the cells were stained with SNA lectin to measure 2,6-sialylation level by FACS analysis.

C[C@H](CCC(=O)OCCOCCOCCN=[N+]=[N-])C1CC[C@H]2[C@@H]3CC[C@@H]4C[C@H](OC(=O)[C@H](CC(=O)O)Nc5ccc([N+](=O)[O-])c6nonc56)CC[C@]4(C)[C@H]3CC[C@]12C (stereo partly drawn) [Compound 3, (3S)-4-(((3R,5R,8R,9S,10S,13R,14S)-17-((R)-5-(2-(2-(2-azidoethoxy)ethoxy)ethoxy)-5-oxopentan-2-yl)-10,13-dimethylhexadecahydro-1H-cyclopenta[a]phenanthren-3-yl)oxy)-3-((7-nitrobenzo[c][1,2,5]oxadiazol-4-yl)amino)-4-oxobutanoic acid]
selectivity ratio ST3GALI/ST6GALI [1]: >139 | IC50 ([1]; α2,6-N-link, read-out: IC50 (μM) ST6GALI): 3.59 ± 0.38 µM | migration of MDA-MD-231 cells (MDA-MB-231 cells; 20 μM, FIG. 1): inhibited the migration | IC50 (MDA-MB-231 cells; Homo sapiens, MDA-MB-231, 16 h, read-out: IC50 on migration): 10.64 ± 0.09 µM | metastatic lesions in livers (histological analysis) (PANC-1 pancreatic tumor; PANC-1 cells grown in fructose-containing medium): suppressed | progression of the tumor (PANC-1 pancreatic tumor; PANC-1 cells pre-treated with FCW34, FIG. 5): halted significantly | Liver lesions Incidence (PANC-1 pancreatic tumor; mice bearing pancreatic cancer): 0/3 | level of 2,6-sialylation (PANC-1 cells): greatly reduced
